The source of these data is ChEMBL document CHEMBL3763074, “Hesperetin derivatives: Synthesis and anti-inflammatory activity” (Bioorg Med Chem Lett, 2016).

Active and inactive are the calls of the source. The calls are words filed in the database; no cut-off is given here.

Broadly, the logP is the decadic logarithm of the partition coefficient of the neutral form, usually between octanol and water. A lower logP goes with a more hydrophilic compound.

Data set [1] concerns RAW264.7. Kind of data set: Antiinflammatory activity in mouse RAW264.7 assessed as decrease in LPS-induced TNF-alpha production at 10 uM pretreated with 1 ug/ml LPS for 22 hrs followed by addition of compound for 24 hrs by ELISA. The format is functional, cell-based. In general terms: In an ELISA, binding on a coated surface is turned into a signal by an enzyme label.
The nature of data set [2]: Octanol/water partition coefficient, logP of the compound by shake flask method. The format is physicochemical.
Data set [3] relates to RAW264.7. Put plainly: Antiinflammatory activity in mouse RAW264.7 assessed as decrease in LPS-induced IL-6 production at 10 uM pretreated with 1 ug/ml LPS for 22 hrs followed by addition of compound for 24 hrs by ELISA. The data set is classed as functional, cell-based.
In data set [4] the test system is RAW264.7. Put plainly: Cytotoxicity against mouse RAW264.7 cells at 1 to 10 uM for 24 hrs by MTT assay. The format is cell-based. The conditions noted are these: raw264.7, 24 h.
Data set [5] concerns RAW264.7. Kind of data set: Antiinflammatory activity in mouse RAW264.7 assessed as decrease in LPS-induced IL-6 production pretreated with 1 ug/ml LPS for 22 hrs followed by addition of compound for 24 hrs by ELISA. The format is functional, cell-based.
In data set [6] the test system is RAW264.7. Put plainly: Antiinflammatory activity in mouse RAW264.7 assessed as inhibition of LPS-induced notch-1 expression at 10 uM pretreated with 1 ug/ml LPS for 22 hrs followed by addition of compound for 24 hrs by Western blot analysis. The data set is classed as functional, cell-based. (Immunoblotting shows a protein as a band on a membrane.)
The subject of data set [7] is RAW264.7. Put plainly: Antiinflammatory activity in mouse RAW264.7 assessed as decrease in LPS-induced TNF-alpha production pretreated with 1 ug/ml LPS for 22 hrs followed by addition of compound for 24 hrs by ELISA. The format is functional, cell-based.
Data set [8] concerns RAW264.7. Kind of data set: Cytotoxicity against mouse RAW264.7 cells at 100 uM for 24 hrs by MTT assay. The data set is classed as cell-based. The conditions noted are these: raw264.7, 24 h. A general note: Tetrazolium assays rely on reduction of a dye to a coloured formazan, in cell work by metabolically active cells.
In data set [9] the test system is RAW264.7. Put plainly: Antiinflammatory activity in LPS-induced mouse RAW264.7 assessed as inhibition of LPS-induced iNOS expression pretreated with 1 ug/ml LPS for 22 hrs followed by addition of compound for 24 hrs by Western blot analysis. The data set is classed as functional, cell-based.

Take `COc1ccc([C@@H]2CC(=O)c3c(cc(O)c(CNC(C)c4ccccc4)c3O)O2)cc1O` (stereo not given in full): the outcome with RAW264.7 [1] and in the data set with RAW264.7 [3] was Active. In data set [2], this molecule had a lipophilicity (logP) of 1.72.
For the molecule `COc1ccc([C@@H]2CC(=O)c3c(O)cc(O)cc3O2)cc1O` [HESPERETIN], the result in the data set with RAW264.7 [1] and with RAW264.7 [3] was Active. Also, the logP in data set [2] was determined as 2.15. In the data set with RAW264.7 [4], the Activity result is on record as “Non-toxic”.
As for `COc1ccc([C@@H]2CC(=O)c3c(cc(O)c(CN4CCN(CCO)CC4)c3O)O2)cc1O`, the outcome with RAW264.7 [1] and in the data set on RAW264.7 [3] was Active. In data set [2], this molecule gave a logP of 1.15.
For `COc1ccc([C@@H]2CC(=O)c3c(cc(O)c(CNC(C)C)c3O)O2)cc1O`, the outcome with RAW264.7 [1], in the data set on RAW264.7 [3] and with RAW264.7 [6] was Active. Moreover, the logP in [2] was -0.26. The Activity result with RAW264.7 [5] is “Dose-dependent effect”; with RAW264.7 [4], “Non-toxic”; in the data set on RAW264.7 [7], “Dose-dependent effect”.
As to `COc1ccc([C@@H]2CC(=O)c3c(cc(O)c(CNCCCN4CCOCC4)c3O)O2)cc1O`, the outcome with RAW264.7 [1] and in the data set with RAW264.7 [3] was Active. In data set [2], this molecule displayed a logP of 1.2.
`COc1ccc([C@@H]2CC(=O)c3c(cc(O)c(CNCCc4ccccc4)c3O)O2)cc1O`: the result in the data set on RAW264.7 [1] and in the data set with RAW264.7 [3] was Active. The molecule also displayed a logP in data set [2] of 1.67. Moreover, the Activity entry in the data set on RAW264.7 [4] is reported as “Non-toxic”; in the data set with RAW264.7 [8], “Toxic”.
Take `COc1ccc([C@@H]2CC(=O)c3c(cc(O)c(CNC(C)(C)C)c3O)O2)cc1O`: the outcome in the data set on RAW264.7 [1], in the data set on RAW264.7 [3] and with RAW264.7 [6] was Active. The logP in data set [2] was -0.76. Further, the Activity entry in the data set on RAW264.7 [5] was “Dose-dependent effect”; in the data set with RAW264.7 [4], “Non-toxic”; with RAW264.7 [9], “Dose-dependent effect”; with RAW264.7 [8], “Toxic”; in the data set with RAW264.7 [7], “Dose-dependent effect”.
Consider `CCN(CC)Cc1c(O)cc2c(c1O)C(=O)C[C@@H](c1ccc(OC)c(O)c1)O2`, for which the outcome in the data set on RAW264.7 [1] and in the data set with RAW264.7 [3] was Active. In data set [2], this molecule displayed a logP of 1.68. Moreover, in the data set with RAW264.7 [4], the Activity entry is reported as “Non-toxic”.
Take `COc1ccc([C@@H]2CC(=O)c3c(cc(O)c(CN(C)C)c3O)O2)cc1O`: the result in the data set on RAW264.7 [1] and in the data set on RAW264.7 [3] was Active. The same molecule displayed a logP in data set [2] of 1.03.
Consider `COc1ccc([C@@H]2CC(=O)c3c(cc(O)c(CN4CCN(C)CC4)c3O)O2)cc1O`, for which the outcome in the data set on RAW264.7 [1] and with RAW264.7 [3] was Active. The molecule also gave a logP in data set [2] of 1.19. Moreover, in the data set on RAW264.7 [4], the Activity result was “Non-toxic”.
Consider `COc1ccc([C@@H]2CC(=O)c3c(cc(O)c(CNCCc4ccc([N+](=O)[O-])cc4)c3O)O2)cc1O`, for which the outcome in the data set on RAW264.7 [1] and in the data set on RAW264.7 [3] was Active. In data set [2], the logP came to 1.73.
For `CCN1CCN(Cc2c(O)cc3c(c2O)C(=O)C[C@@H](c2ccc(OC)c(O)c2)O3)CC1`, the outcome in the data set with RAW264.7 [1], in the data set with RAW264.7 [3] and in the data set on RAW264.7 [6] was Active. For the same molecule, the lipophilicity (logP) in data set [2] was -0.75. The Activity result with RAW264.7 [5] is “Dose-dependent effect”; in the data set on RAW264.7 [4], “Non-toxic”; with RAW264.7 [8], “Toxic”; with RAW264.7 [7], “Dose-dependent effect”.
Consider `COc1ccc([C@@H]2CC(=O)c3c(cc(O)c(CNCCc4ccc(Cl)cc4)c3O)O2)cc1O`, for which the outcome with RAW264.7 [1] and in the data set with RAW264.7 [3] was Active. The molecule also returned a logP in [2] of 1.77.
For the molecule `COc1ccc(CCNCc2c(O)cc3c(c2O)C(=O)C[C@@H](c2ccc(OC)c(O)c2)O3)cc1`, the outcome in the data set with RAW264.7 [1] and in the data set on RAW264.7 [3] was Active. In data set [2], this molecule returned a logP of 1.56. Besides, the Activity entry is “Non-toxic” in the data set with RAW264.7 [4] and “Toxic” with RAW264.7 [8].
Consider `COc1ccc([C@@H]2CC(=O)c3c(cc(O)c(CN4CCOCC4)c3O)O2)cc1O`, for which the outcome in the data set on RAW264.7 [1] and in the data set on RAW264.7 [3] was Active. The same molecule had a logP in data set [2] of 1.23.
Turning to `COc1ccc([C@@H]2CC(=O)c3c(cc(O)c(CN4CCN(CCN5CCOCC5)CC4)c3O)O2)cc1O`, the result with RAW264.7 [1] and in the data set on RAW264.7 [3] was Active. Moreover, in [2], the logP was determined as 1.18.
`COc1ccc2c(c1)c(CC(=O)O)c(C)n2C(=O)c1ccc(Cl)cc1`: the result with RAW264.7 [1] and in the data set with RAW264.7 [3] was Active.
As for `CCC(C)NCc1c(O)cc2c(c1O)C(=O)C[C@@H](c1ccc(OC)c(O)c1)O2` (stereo not given in full), the outcome in the data set with RAW264.7 [1] and in the data set with RAW264.7 [3] was Active. For the same molecule, the logP in data set [2] was 0.04.
